Source: US20050255537A1, “Method for monitoring treatment with a parathyroid hormone” (priority 1999, published 2005)

Experiments:
Format in all cases: in vivo, human
[1] = test system: serum PICP, serum BSAP, urinary NTX, urinary free deoxypyridinoline; test: Example 5 study GHAJ: biochemical markers of bone formation and resorption in men; conditions: for serum PICP peak concentration above baseline: Month 1
Method: Four hundred thirty seven men with primary osteoporosis were enrolled in the study. Approximately one-third of die patients were randomly assigned to LY333334 40 μg/day plus calcium and vitamin D, one-third of the patients were randomly assigned to LY333334 20 μg/day plus calcium and vitamin D, and one-third of the patients were randomly assigned to placebo plus calcium and vitamin D. • Number of Subjects: • PTH: Male 437, Female 0, Total 437; • LY333334 20 μg: Male: Total 151. • LY333334 40 μg: Male: Total 139. • Placebo: Male: Total 147. • Diagnosis and Inclusion Criteria: The study patients were men with primary osteoporosis, aged 30 to 85 years, inclusive. L-2 to L-4 vertebrae must have been intact without artifacts, crush fracture or other abnormalities which would have interfered with the analysis of the posterior-anterior lumbar spine bone mineral density (BMD) measurement which must have been at least 2.0 SD below that of young, healthy men. […] Patient Demographic and Other Baseline Characteristics

[2] = test system: PICP, BSAP, NTX, DPD; test: Example 4 population pharmacodynamic models of biochemical markers (PICP, BSAP, NTX, DPD)
From the text: Population pharmacodynamic models were developed individually for total lumber spine BMD, femoral neck BMD, procollagen 1 carboxy-terminal propeptide (PICP), bone specific alkaline phosphate (BSAP), urinary N-telopeptide (NTX), and urinary free deoxypyridinoline (DPD). These treatment-response models characterized change in the pharmacodynamic endpoints and identified significant patient factors influencing response to therapy.
The time course of biochemical marker response to LY333334 dose was extensively evaluated as part of the overall population pharmacodynamic analyses. Pharmacodynamic models were developed for four biochemical markers: PICP and BSAP (biochemical measures of bone formation); NTX and […] (biochemical measures of bone resorption). Patient-specific factors that explained some of the variability of each model were identified and included in the model. As an additional evaluation, the relationship between LY333334 exposure and PICP response was modeled. Finally, the biochemical markers were evaluated as potential indicators of response to therapy by modeling the relationship between a change in the biochemical endpoint after 1 month of treatment and the increase in spine and femoral neck BMD after 21 months of treatment. […] Additional patient-specific factors were identified, which further decreased the variability in this predictive model.
An extensive investigation was undertaken to evaluate the time course of biochemical markers of bone formation (PICP and BSAP) and resorption (NTX and DPD) during LY333334 therapy. The population pharmacodynamic evaluation of these biochemical markers included data from approximately 340 patients randomly assigned to receive LY333334 40 μg/day (n≅170) or LY333334 20 μg/day (n≅170). […] Pharmacodynamic models based on linear, exponential, and spline functions of time were evaluated. […] These models reflect the complex time course of change in the underlying processes of bone formation and bone resorption occurring throughout the skeleton in response to the anabolic action induced by LY333334.

[3] = test system: postmenopausal women; test: Pharmacokinetic/pharmacodynamic sigmoid Emax models (spine BMD, femoral neck BMD, PICP)
From the text: In order to explore the relationship between concentration and the effect on spine BMD, a pharmacokinetic/pharmacodynamic model was developed. This relationship was best described by a sigmoid Emax model with AUC50 estimated at 170 pg·hr/mL.
A pharmacokinetic/pharmacodynamic model was also developed for femoral neck BMD. The relationship was best described by a sigmoid Emax model with AUC50 estimated at 283 pg·hr/mL. […] Thus, the final pharmacodynamic model which included treatment group rather than systemic exposure, predicted the increase in hip BMD in a patient of average age (˜69 years), body weight (˜66 kg), and baseline NTX concentration (˜48 mmBCE/L) to be approximately 2.8% and 5.2% after 21 months of 20 μg/day and 40 μg/day therapy, respectively.
A pharmacokinetic/pharmacodynamic model was developed for the PICP response. […] Thus, LY333334 exposure was a less significant predictor of elevation in PICP concentrations than administered dose.

CC[C@H](C)[C@H](NC(=O)[C@H](CCC(=O)O)NC(=O)[C@H](CO)NC(=O)[C@@H](NC(=O)[C@@H](N)CO)C(C)C)C(=O)N[C@@H](CCC(N)=O)C(=O)N[C@@H](CC(C)C)C(=O)N[C@@H](CCSC)C(=O)N[C@@H](Cc1cnc[nH]1)C(=O)N[C@@H](CC(N)=O)C(=O)N[C@@H](CC(C)C)C(=O)NCC(=O)N[C@@H](CCCCN)C(=O)N[C@@H](Cc1cnc[nH]1)C(=O)N[C@@H](CC(C)C)C(=O)N[C@@H](CC(N)=O)C(=O)N[C@@H](CO)C(=O)N[C@@H](CCSC)C(=O)N[C@@H](CCC(=O)O)C(=O)N[C@@H](CCCN=C(N)N)C(=O)N[C@H](C(=O)N[C@@H](CCC(=O)O)C(=O)N[C@@H](Cc1c[nH]c2ccccc12)C(=O)N[C@@H](CC(C)C)C(=O)N[C@@H](CCCN=C(N)N)C(=O)N[C@@H](CCCCN)C(=O)N[C@@H](CCCCN)C(=O)N[C@@H](CC(C)C)C(=O)N[C@@H](CCC(N)=O)C(=O)N[C@@H](CC(=O)O)C(=O)N[C@H](C(=O)N[C@@H](Cc1cnc[nH]1)C(=O)N[C@@H](CC(N)=O)C(=O)N[C@@H](Cc1ccccc1)C(=O)O)C(C)C)C(C)C [LY333334]
urinary N-telopeptide and urinary free deoxypyridinoline ([1]; 20-μg and 40-μg doses): Slightly delayed but significant increases | serum PICP peak concentration above baseline ([1]; 20-μg group): 33.7% | increase in serum BSAP concentration from baseline ([1]; 20-μg group, Month 12): 28.8% | serum PICP compared with baseline ([1]; 20-μg group, Month 12): decreased compared with baseline | urinary NTX percent change from baseline, peak ([1]; 20-μg group, Month 12): approximately 57% | serum PICP peak concentration above baseline ([1]; 40-μg group): 78.0% | urinary NTX percent change from baseline, peak ([1]; 40-μg group, Month 6): approximately 155% | increase in serum BSAP concentration from baseline ([1]; 40-μg group, Month 12): 59.3% | serum PICP compared with baseline ([1]; 40-μg group, Month 12): slightly decreased compared with baseline | urinary NTX over baseline ([1]; 40-μg group, Month 12): approximately 118% | bone marker levels after discontinuation ([1]; closeout visit): only serum PICP levels had returned to baseline by the closeout visit | time of BSAP peak response after initiation of treatment ([2]; 20 and 40 μg/day): 6 months | time of maximum PICP ([2]; 20 and 40 μg/day): ≤ 1 month | time of peak urinary DPD concentrations after initiation of treatment ([2]; 20 and 40 μg/day): 6 months | BSAP response in 40 μg/day group greater than 20 μg/day group ([2]; 40 vs 20 μg/day): 73% | DPD response in 40 μg/day group greater than 20 μg/day group ([2]; 40 vs 20 μg/day): 83% | NTX response in 40 μg/day group greater than 20 μg/day group ([2]; 40 vs 20 μg/day): 87% | PICP response in 40 μg/day group greater than 20 μg/day group ([2]; 40 vs 20 μg/day): 94% | minimum increase in PICP level in the entire study population ([2]; about 1 month of therapy): at least 20 pM | time of peak urinary NTX excretion ([2]; last observation while on therapy): 12 months | increase in PICP concentration at 1 month as % of the maximum effect ([3]; 20 μg dose): 70% | increase in femoral neck BMD as % of the maximum effect ([3]; 20 μg dose): 56% | increase in spine BMD as % of the maximum effect ([3]; 20 μg dose): 82% | increase in PICP concentration at 1 month as % of the maximum effect ([3]; 40 μg dose): 85% | increase in femoral neck BMD as % of the maximum effect ([3]; 40 μg dose): 67% | increase in spine BMD as % of the maximum effect ([3]; 40 μg dose): 92% | AUC50, sigmoid Emax model for PICP response ([3]; PICP): 239 pg·h/mL | AUC50, sigmoid Emax model for femoral neck BMD ([3]; femoral neck BMD): 283 pg·h/mL | AUC50, sigmoid Emax model for spine BMD ([3]; spine BMD): 170 pg·h/mL
